Data published in US20250206779A1, “ANGIOTENSIN-(1-9) ANALOGUE BASED ON D AMINO ACIDS, PHARMACEUTICAL COMPOSITIONS AND USES THEREOF” (UNIVERSIDAD DE CHILE, priority 2021, published 2025).
Where a SMILES comes first, the peptide text is derived from it. [ ]: non-standard residue; d: D form.

How the values were obtained:
[1] = tested on: spontaneously hypertensive rats (SHR); assay: Cardiac fibrosis in SHR, picrosirius red staining; assay type: in vivo, rat; conditions: SHR, 1,200 ng/kg/min, 14 days
Method: Experimental animal model. All procedures were performed in accordance with the Guide for the Care and Use of Laboratory Animals published by the U.S. National Institutes of Health (NIH Publication 85 23, 1985) and approved by our Institutional Bioethics Committee. The animals were housed under the continuous professional monitoring of the Medical Veterinary staff in the animal facility of the Pontificia Universidad Católica de Chile, under the following conditions: 12-h light-dark cycle; 21° C. ambient temperature; 50% humidity; adequate ventilation; noise-free environment; and food and water ad libitum. Male spontaneously hypertensive rats (SHR, age 12 weeks) and normotensive Wistar Kyoto rats (WKY, 12 weeks age) were used. […] Systolic blood pressure (SBP), diastolic blood pressure (DBP) and body weight (BW) were measured at the end of the treatment period and the animals were then sacrificed.
Evaluation of cardiac fibrosis. […] In hypertense SHR increased picrosirius red staining was detected in the hearts, indicating the presence of interstitial collagen, a marker of cardiac fibrosis.

[2] = tested on: cardiac myocytes isolated from neonatal Sprague-Dawley rat ventricles; assay: Norepinephrine-induced cardiomyocyte hypertrophy, western blot of β-MHC and ANP; assay type: cell-based; conditions: 1, 10 or 100 μM peptide, 10 μM norepinephrine
Method: Cardiac myocytes were isolated from neonatal Sprague-Dawley rat ventricles. Cardiac myocytes were plated at 70% final density in gelatin-coated wells (12-well plates) or in 60-mm Petri dishes and maintained at 37° C. in a humidified atmosphere of 5% CO2/95% air for 24 h in Dulbecco's Modified Eagle's medium [(DMEM)/M199](4:1) containing 10% fetal bovine serum and 5% fetal calf serum. Serum was withdrawn 24 h before preincubation with 1, 10 or 100 μM retro-inverse angiotensin-(1-9) for 1 h; then, 10 μM norepinephrine (Sigma, St Louis, Missouri, USA) were added and the cultures were incubated for 24 h. Then cells were washed with PBS at 4° C. and then cells were lysed with 50 μL of RIPA lysis buffer (Tris-HCl 10 mM pH 7.4, EDTA 5 mM, NaCl 50 mM, deoxycholic acid 1%, Triton X-100 1% v/v) supplemented with phosphatase and protease inhibitors (Roche). After centrifugation at 12,000 r.p.m. for 15 min at 4° C., the supernatat was recovered; total protein content was determined by using Bradford (BioRad protein assay, BioRad, Hercules, CA, USA). Proteins were denatured in SDS-PAGE 4× buffer and resolved in 12% PAGE-SDS. After electrotransference, beta-myosin heavy chain (β-MHC) and atrial natriuretic peptide (ANP) were used as hypertrophic markers. β-tubulin was used as loading control. As expected, norepinephrine 10 μM for […], a cardiomyocyte hypertrophy inducer, triggered β-MHC and ANP increase (FIG. 3).

[3] = tested on: cardiomyocytes; assay: Norepinephrine-induced cardiomyocyte hypertrophy, cell area and perimeter; assay type: cell-based, rat; conditions: 100 μM peptide, norepinephrine 10 μM
Method: Cardiac myocytes were isolated from neonatal Sprague-Dawley rat ventricles. Cardiac myocytes were plated at 70% final density in gelatin-coated wells (12-well plates) or in 60-mm Petri dishes and maintained at 37° C. in a humidified atmosphere of 5% CO2/95% air for 24 h in Dulbecco's Modified Eagle's medium [(DMEM)/M199](4:1) containing 10% fetal bovine serum and 5% fetal calf serum. Serum was withdrawn 24 h before preincubation with 1, 10 or 100 μM retro-inverse angiotensin-(1-9) for 1 h; then, 10 μM norepinephrine (Sigma, St Louis, Missouri, USA) were added and the cultures were incubated for 24 h. […] After centrifugation at 12,000 r.p.m. for 15 min at 4° C., the supernatat was recovered; total protein content was determined by using Bradford (BioRad protein assay, BioRad, Hercules, CA, USA). […]
Cardiomyocyte hypertrophy is characterized by an increase of cell area and perimeter. Cell area and perimeter were analyzed as follows. […] Cell area and perimeter were determined in cells fixed with 4% paraformaldehyde for 10 min and permeabilized with 0.2% Triton X100 for 6 min. […] Cell staining was evaluated by epifluorescence microscopy. At least 100 cells from randomly selected fields were analyzed using Image J software (NIH). […]

[4] = Stability in human serum determined by HPLC; assay type: in vitro ADME; conditions: male, 48 h incubation, 37° C., read-out: degradation after incubation with human serum
Method: The retro-inverse peptides were dissolved in PBS to obtain a final concentration of 1 mM. From this stock, an aliquot of 50 μL was taken and diluted to 450 μL of human serum (Sigma Aldrich from human male AB plasma, USA origin, sterile-filtered) at 37° C. under agitation, to obtain an initial concentration of […] and incubated for 48 h. Aliquots of 50 μL were extracted at 0, 5, 10 min and 1, 3, 6, 24 and 48 h and added to 200 μL of methanol at 4° C. for 30 min to precipitate serum proteins. The samples were then centrifuged at 13,000 g in Hermle Cooling Centrifuge Z 326 K 311.00 V01 at 4° C. for 30 min. The supernatants (approximately 200 μL) were obtained, placed in vials, and then analyzed by HPLC. All analyzes were performed on the Perkin Elmer auto sampler flexo HPLC, using a reverse phase 4.6×100 mm column with a particle size of […] (Waters XBridge Peptide BEH C18 Column). Mobile phase A was 100% acetonitrile and phase B was TFA 0.0004% in Milli-Q water. The initial composition of eluent was 5% A and 95% B for 1 min and then a linear gradient to reach 100% A in 19 min and then return to the initial composition in 4 min, with a total run time of 25 min. The eluent flow was 0.9 mL/min and the temperature of the column was adjusted to 26° C. L measurement was performed at a UV signal of 220 nm wavelength. Where 50 μL was injected per sample. Peptides were identified based on their retention time in the respective chromatogram obtained in the Chromera-HPLC flexar program.

In the case of CC[C@@H](C)[C@@H](NC(=O)[C@@H](Cc1c[nH]cn1)NC(=O)[C@H]1CCCN1C(=O)[C@@H](Cc1ccccc1)NC(=O)[C@H](N)Cc1c[nH]cn1)C(=O)N[C@H](Cc1ccc(O)cc1)C(=O)N[C@@H](C(=O)N[C@H](CCCNC(=N)N)C(=O)N[C@H](CC(=O)O)C(=O)O)C(C)C [retro-inverse angiotensin-(1-9), NH2-^DH^DF^DP^DH^DI^DY^DV^DR^DD-COOH] (H-[dH][dF][dP][dH][dI][dY][dV][dR][dD]-OH), the “accumulation of collagen in cardiac tissue” value [1] is reported as “completely revert”, the “increase of ANP induced by norepinephrine” value [2] is reported as “inhibited, in a dose response manner” and the “increase of β-MHC induced by norepinephrine” value [2] is reported as “inhibited, in a dose response manner”. For the same molecule, the “increase of cell area induced by norepinephrine” value [3] was “inhibited, in a dose response manner”, the “increase of cell perimeter induced by norepinephrine” value [3] was “inhibited, in a dose response manner” and the metabolised at 48 h, 20 μM [4] was under 20%.
